Test results taken from patent US4996230A, “Leukotriene antagonists” (Eli Lilly and Company, priority 1990, dated 1991).

Biological target: T1, leukotriene B4 specific receptor on the membrane of human neutrophils (Homo sapiens, UniProt Q15722)
T1 construct: a specific receptor on the membrane of human neutrophils; endogenous in cells; host or cells: human peripheral blood neutrophils (buffy coats of two blood donors; intact cells, at least 90% neutrophils)
Assay: Inhibition of Binding of ^3H-LTB4 to Peripheral Human Neutrophils (radio-ligand binding assay)
Conditions: 0.1-0.2 nM ^3H-LTB4, 10 minutes at 4° C., read-out: LTB4 Binding Inhibition (percent inhibition); for inhibition at 10 µM: Drug Concentration 10^-5 M; for inhibition at 1 µM: Drug Concentration 10^-6 M; for inhibition at 0.1 µM: Drug Concentration 10^-7 M
Protocol: Inhibition of Binding of ^3 H-LTB4 to Peripheral Human Neutrophils
The effectiveness of compounds to inhibit the binding of leukotriene B4 to a specific receptor on the membrane of human neutrophils was measured by using an adaptation of a radio-ligand binding assay developed by Goldman and Goetzl, J. Immunol., 129, 1600 (1982). Other investigators have developed similar assays (see, e.g., Kreisle, et al., J. Exp. Med., 157, 628 (1983) and Lin, et al., Prostaglandins, 28, 837 (1984)).
Cells used in the assay were isolated by standard techniques of centrifugation on Ficoll-Hypaque, dextran 70 sedimentation and hypotonic lysis. The following procedure was used. Freshly-prepared buffy coat layers from two individuals were obtained from a local blood donor center. The cells were mixed and diluted to 484 ml with phosphate buffered saline containing heparin (10 units/ml) and heat-inactivated calf serum (5%). This was divided into 20 ml aliquots and the aliquots layered on top of Ficoll-Paque (12 ml). The material was then centrifuged at 500 g for 40 minutes at room temperature. The resulting upper layer of platelets and mononuclear cells was discarded. The lower layer containing erythrocytes and neutrophils was retained. Buffer was added (1 ml per 4 ml of lower layer) and the suspension mixed. For each milliliter of this mixture, 0.33 ml of 6% Macrodex was added. After stirring, the cells were allowed to sediment for 1 hour at 37° C. The resulting erythrocyte pellet was discarded and the neutrophil enriched supernatant fluid centrifuged at 500 g for 10 minutes at 4° C. Erythrocytes still present in this cell pellet were lysed by incubating the cells with 5-8 ml ice-cold distilled water for 30-45 seconds. Subsequently, the volume was made up to 50 ml by addition of ice-cold buffer and the cells resuspended. The suspension was then centrifuged at 300 g for 10 minutes at 4° C. The cells were finally resuspended at a cell density of 2×10^7 cells/ml in the assay buffer. This buffer consisted of Hanks' balanced salt solution and 0.1% ovalbumin (pH 7.3).
The amount of bound ^3 H-LTB4 was then measured and compared with the amount bound in the absence of test compound. The assay was carried out in microcentrifuge tubes by adding first 10 μl test compound dissolved in DMSO, followed by adding 20 μl ^3 H-LTB4 diluted in assay buffer, and finally adding 500 μl of the cell suspension. At the end of the 10 minutes incubation, 300 μl of a mixture of dibutyl and dinonyl phthalate (7:2) were added and the tubes centrifuged for 2 minutes in a microcentrifuge. The radioactivity bound to the cell pellet was measured by scintillation spectroscopy. Appropriate corrections for nonspecific bonding of ^3 H-LTB4 were made.

T1 sequence (Q15722 whole entry): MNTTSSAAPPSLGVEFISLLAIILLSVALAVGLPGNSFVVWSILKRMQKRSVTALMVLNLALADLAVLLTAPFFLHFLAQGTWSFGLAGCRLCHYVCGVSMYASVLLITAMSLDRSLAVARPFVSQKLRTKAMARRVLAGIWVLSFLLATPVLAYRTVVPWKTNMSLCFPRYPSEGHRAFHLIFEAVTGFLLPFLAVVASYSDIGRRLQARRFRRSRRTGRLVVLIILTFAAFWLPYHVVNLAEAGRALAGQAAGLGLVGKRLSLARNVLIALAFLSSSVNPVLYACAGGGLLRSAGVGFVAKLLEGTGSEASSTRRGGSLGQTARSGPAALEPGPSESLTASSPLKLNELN

Row | SMILES | inhibition at 10 µM [%] | inhibition at 1 µM [%] | inhibition at 0.1 µM [%]
1 | COc1ccc(C=CCCCCOc2ccc3c(=O)c4cc(C(=O)O)ccc4oc3c2CCC(=O)O)cc1 [Example 6, 7-Carboxy-3-{[6-(4-methoxyphenyl)-5-hexenyl]oxy}-9-oxo-9H-xanthene-4-propanoic acid] | 102 | 99 | 91
2 | CCCCCCCCCCOc1cc2c(cc1CCC(=O)O)C(=O)c1cc(C(=O)O)ccc1-2 [Example 8, 7-Carboxy-3-decyloxy-9-oxo-9H-fluorene-2-propanoic acid] | 68 | 19 | -4
3 | CCCCCCCCCCOc1ccc2c(=O)c3cccc(C(=O)O)c3oc2c1CCC(=O)O [Example 2, 5-Carboxy-3-(decyloxy)-9-oxo-9H-xanthene-4-propanoic acid] |  | 27 | -7
4 | COc1ccc(CCCCCCOc2ccc3c(=O)c4cc(C(=O)O)ccc4oc3c2CCC(=O)O)cc1 [Example 7, 7-Carboxy-3-{[6-(4-methoxyphenyl)hexyl]oxy}-9-oxo-9H-xanthene-4-propanoic acid] | 106 | 103 | 85
5 | CCCCCCCCCCOc1ccc2c(=O)c3cc(C(=O)O)ccc3oc2c1CCC(=O)O [Example 4, 7-Carboxy-3-(decyloxy)-9-oxo-9H-xanthene-4-propanoic acid] | 102 | 86 | 52
6 | CCCCCCCCCCOc1cc2oc3ccc(C(=O)O)cc3c(=O)c2cc1CCC(=O)O [Example 3, 7-Carboxy-3-decyloxy-9-oxo-9H-xanthene-2-propanoic acid] |  | 23 | -4
7 | CCCCCCCCCCOc1cc2oc3c(C(=O)O)cccc3c(=O)c2cc1CCC(=O)O [Example 1, 5-Carboxy-3-(decyloxy)-9-oxo-9H-xanthene-2-propanoic acid] |  | 25 | 2
